These results are taken from PubChem BioAssay AID1259407 (Chemical Carcinogenesis Research Information System (CCRIS), 2018).

For this data set, the system named is CCRIS mutagenicity, Ames/micronucleus/aberration tests. Nature of the data set: CCRIS mutagenicity studies.
The mark [1] stands for this setting: Test System: AMES SALMONELLA TYPHIMURIUM, Strain/Indicator: TA98, Metabolic Activation: NONE, Method: STANDARD PLATE.
Where [2] appears, read: Test System: AMES SALMONELLA TYPHIMURIUM, Strain/Indicator: TA98, Metabolic Activation: RAT, LIVER, S-9, AROCLOR 1254, Method: STANDARD PLATE.
[3] abbreviates: Test System: AMES SALMONELLA TYPHIMURIUM, Strain/Indicator: TA100, Metabolic Activation: NONE, Method: STANDARD PLATE.
Where [4] appears, read: Test System: AMES SALMONELLA TYPHIMURIUM, Strain/Indicator: TA100, Metabolic Activation: RAT, LIVER, S-9, AROCLOR 1254, Method: STANDARD PLATE.
Where [5] appears, read: Test System: AMES SALMONELLA TYPHIMURIUM, Strain/Indicator: TA102, Metabolic Activation: NONE, Method: STANDARD PLATE.
The mark [6] stands for this setting: Test System: AMES SALMONELLA TYPHIMURIUM, Strain/Indicator: TA1537, Metabolic Activation: NONE, Method: STANDARD PLATE.
Where [7] appears, read: Test System: AMES SALMONELLA TYPHIMURIUM, Strain/Indicator: TA1537, Metabolic Activation: RAT, LIVER, S-9, AROCLOR 1254, Method: STANDARD PLATE.
Where [8] appears, read: Test System: AMES SALMONELLA TYPHIMURIUM, Strain/Indicator: TA100, Metabolic Activation: NONE, Method: PREINCUBATION
Where [9] appears, read: Test System: AMES SALMONELLA TYPHIMURIUM, Strain/Indicator: TA1535, Metabolic Activation: NONE, Method: PREINCUBATION
Setting [10] is: Test System: AMES SALMONELLA TYPHIMURIUM, Strain/Indicator: TA1535, Metabolic Activation: NONE, Method: STANDARD PLATE.

Activity calls are given as the source filed them. How the calls were made is not given here.

Take `COc1c(Cl)cc2c(c1OC)N(C)[C@@H]1N3C(=O)[C@@]4(C)SS[C@@]3(C(=O)N4C)[C@H](O)[C@]21O`: the mutagenic call is, setting by setting: under setting [1], “inactive; negative”; under setting [2], “inactive; negative”; under setting [3], “inactive; negative”; under setting [4], “inactive; negative”; under setting [5], “inactive; negative”; (Test System: AMES SALMONELLA TYPHIMURIUM, Strain/Indicator: TA102, Metabolic Activation: RAT, LIVER, S-9, AROCLOR 1254, Method: STANDARD PLATE) “inactive; negative”. In addition, the mutagenic call by setting is: under setting [6], “inactive; negative”; under setting [7], “inactive; negative”.
Consider `Clc1ccc(CC2CO2)cc1` (stereo unspecified), for which the mutagenic call is “active; positive” under setting [8], “active; positive” under setting [3], “active; positive” under setting [9] and “active; positive” under setting [10].
Consider `S=c1nc[nH]c2nc[nH]c12`, for which the mutagenic call (End Point: IN VITRO MICRONUCLEUS, Test System: CHL/IU CELLS, Metabolic Activation: NONE) was “active; positive”; the mutagenic call (End Point: IN VITRO MICRONUCLEUS, Test System: CHO CELLS, Metabolic Activation: RAT, LIVER, S-9, AROCLOR 1254) is “inactive; negative”; the mutagenic call (Test System: AMES SALMONELLA TYPHIMURIUM, Strain/Indicator: TA97, Metabolic Activation: HAMSTER, LIVER, S-9, AROCLOR 1254 (30%), Method: PREINCUBATION) is “inactive; negative”; the mutagenic call (Test System: AMES SALMONELLA TYPHIMURIUM, Strain/Indicator: TA97, Metabolic Activation: NONE, Method: PREINCUBATION) is “inactive; negative”; the mutagenic call (Test System: AMES SALMONELLA TYPHIMURIUM, Strain/Indicator: TA97, Metabolic Activation: NONE, Method: STANDARD PLATE) was “inactive; negative”; the mutagenic call (Test System: AMES SALMONELLA TYPHIMURIUM, Strain/Indicator: TA97, Metabolic Activation: RAT, LIVER, S-9, AROCLOR 1254 (30%), Method: PREINCUBATION) is “inactive; negative”. Besides, the mutagenic call (Test System: AMES SALMONELLA TYPHIMURIUM, Strain/Indicator: TA97, Metabolic Activation: RAT, LIVER, S-9, PHENOBARBITAL AND ALPHA-NAPHTHOFLAVONE, Method: STANDARD PLATE) is “inactive; negative”; the mutagenic call (Test System: AMES SALMONELLA TYPHIMURIUM, Strain/Indicator: TA98, Metabolic Activation: HAMSTER, LIVER, S-9, AROCLOR 1254 (30%), Method: PREINCUBATION) is “inactive; negative”; the mutagenic call (Test System: AMES SALMONELLA TYPHIMURIUM, Strain/Indicator: TA98, Metabolic Activation: NONE, Method: PREINCUBATION) was “inactive; negative”; the mutagenic call (Test System: AMES SALMONELLA TYPHIMURIUM, Strain/Indicator: TA98, Metabolic Activation: NONE, Method: SPIRAL ASSAY) was “inactive; negative”; the mutagenic call under setting [1] is “inactive; negative”; the mutagenic call (Test System: AMES SALMONELLA TYPHIMURIUM, Strain/Indicator: TA98, Metabolic Activation: RAT, LIVER, S-9, AROCLOR 1254 (30%), Method: PREINCUBATION) was “inactive; negative”. Also, the mutagenic call was “inactive; negative” (Test System: AMES SALMONELLA TYPHIMURIUM, Strain/Indicator: TA98, Metabolic Activation: RAT, LIVER, S-9, AROCLOR 1254, Method: SPIRAL ASSAY); “inactive; negative” under setting [2]; “inactive; negative” (Test System: AMES SALMONELLA TYPHIMURIUM, Strain/Indicator: TA98, Metabolic Activation: RAT, LIVER, S-9, PHENOBARBITAL AND ALPHA-NAPHTHOFLAVONE, Method: STANDARD PLATE); “inactive; negative” (Test System: AMES SALMONELLA TYPHIMURIUM, Strain/Indicator: TA100, Metabolic Activation: HAMSTER, LIVER, S-9, AROCLOR 1254 (30%), Method: PREINCUBATION); “inactive; negative” under setting [8]; “inactive; negative” (Test System: AMES SALMONELLA TYPHIMURIUM, Strain/Indicator: TA100, Metabolic Activation: NONE, Method: SPIRAL ASSAY). Moreover, the mutagenic call is, setting by setting: (Test System: AMES SALMONELLA TYPHIMURIUM, Strain/Indicator: TA100, Metabolic Activation: RAT, LIVER, S-9, AROCLOR 1254 (30%), Method: PREINCUBATION) “inactive; negative”; (Test System: AMES SALMONELLA TYPHIMURIUM, Strain/Indicator: TA100, Metabolic Activation: RAT, LIVER, S-9, AROCLOR 1254, Method: SPIRAL ASSAY) “inactive; negative”; under setting [4], “inactive; negative”; (Test System: AMES SALMONELLA TYPHIMURIUM, Strain/Indicator: TA100, Metabolic Activation: RAT, LIVER, S-9, PHENOBARBITAL AND ALPHA-NAPHTHOFLAVONE, Method: STANDARD PLATE) “inactive; negative”; under setting [5], “inactive; negative”; (Test System: AMES SALMONELLA TYPHIMURIUM, Strain/Indicator: TA1535, Metabolic Activation: HAMSTER, LIVER, S-9, AROCLOR 1254 (30%), Method: PREINCUBATION) “active; positive”. Also, the mutagenic call by setting is: under setting [9], “active; positive”; (Test System: AMES SALMONELLA TYPHIMURIUM, Strain/Indicator: TA1535, Metabolic Activation: NONE, Method: SPIRAL ASSAY) “active; positive”; under setting [10], “active; positive”; (Test System: AMES SALMONELLA TYPHIMURIUM, Strain/Indicator: TA1535, Metabolic Activation: RAT, LIVER, S-9, AROCLOR 1254 (30%), Method: PREINCUBATION) “active; positive”; (Test System: AMES SALMONELLA TYPHIMURIUM, Strain/Indicator: TA1535, Metabolic Activation: RAT, LIVER, S-9, AROCLOR 1254, Method: SPIRAL ASSAY) “active; positive”; (Test System: AMES SALMONELLA TYPHIMURIUM, Strain/Indicator: TA1535, Metabolic Activation: RAT, LIVER, S-9, AROCLOR 1254, Method: STANDARD PLATE) “active; positive”. Besides, the mutagenic call is “active; positive” (Test System: AMES SALMONELLA TYPHIMURIUM, Strain/Indicator: TA1535, Metabolic Activation: RAT, LIVER, S-9, PHENOBARBITAL AND ALPHA-NAPHTHOFLAVONE, Method: STANDARD PLATE); “inactive; negative” (Test System: AMES SALMONELLA TYPHIMURIUM, Strain/Indicator: TA1537, Metabolic Activation: NONE, Method: SPIRAL ASSAY); “inactive; negative” under setting [6]; “inactive; negative” (Test System: AMES SALMONELLA TYPHIMURIUM, Strain/Indicator: TA1537, Metabolic Activation: RAT, LIVER, S-9, AROCLOR 1254, Method: SPIRAL ASSAY); “inactive; negative” under setting [7]; “active; positive” (Test System: CHINESE HAMSTER V-79, Strain/Indicator: V-79/6-THIOGUANINE, Metabolic Activation: NONE, Method: SUSPENSION/PLATE). For the same molecule, the mutagenic call was “active; positive” (Test System: CHINESE HAMSTER V-79, Strain/Indicator: V-79/6-THIOGUANINE, Metabolic Activation: RAT, LIVER, HEPATOCYTES, Method: SUSPENSION/PLATE); “inactive; negative” (Test System: E. COLI, Strain/Indicator: WP2 (HCR), Metabolic Activation: NONE, Method: STANDARD PLATE); “inactive; negative” (Test System: UDS RAT HEPATOCYTES, Strain/Indicator: THY INCORP, Metabolic Activation: NONE, Method: AUTORADIOGRAPHY (SERUM-FREE MEDIA)).
Turning to `COc1cccc2c1C(=O)c1c(O)c3c(c(O)c1C2=O)CC(O)(C(C)=O)CC3OC1CC(N2CCOCC2C#N)C(O)C(C)O1` (stereo unspecified), the mutagenic call was “inactive; negative” (Test System: AMES SALMONELLA TYPHIMURIUM, Strain/Indicator: TA98, Metabolic Activation: NONE); “active; positive” (Test System: AMES SALMONELLA TYPHIMURIUM, Strain/Indicator: TA98, Metabolic Activation: RAT, LIVER, S-9, AROCLOR 1254); “active; positive” (Test System: CHINESE HAMSTER V-79, Strain/Indicator: V-79/8-AZAGUANINE, Metabolic Activation: NONE); “inactive; negative” (Test System: CHINESE HAMSTER V-79, Strain/Indicator: V-79/8-AZAGUANINE, Metabolic Activation: RAT, HEPATOCYTES); “active; positive” (Test System: UDS RAT HEPATOCYTES, Strain/Indicator: THY INCORP, Metabolic Activation: NONE, Method: AUTOMATIC COLONY COUNTER).
